Test results from patent US7166296B2, “Pharmaceutical formulations and ligands for use therein; mimetics for UEA-1” (Sarlan, Ltd., priority 2001, dated 2007).
≈ marks a conversion by molar mass, not a printed value.

Experiments:
[1] = system: UEA-1 binding sites on Caco-2 cell membrane preparations; experiment: Two tier competition assay: compound incubated alone with membranes, biotinylated UEA-1 added in next step; set-up: species or system human
Experimental: (§1) The epithelial cell binding ability of compounds and mixtures obtained from synthetic combinatorial libraries was determined by competition assays. These assays were set up to measure the inhibition of binding of biotinylated UEA-1 to membrane preparations of the epithelial cell line Caco-2 (colon carcinoma cells-2), by compounds and mixtures of the combinatorial libraries. This cell line is a conventional model for epithelial cells.
(§2) Two competition inhibition assays were used in this case, namely single tier and two tier assays. These assays differed from each other in that in the single tier assay, the mixtures/compounds and the biotinylated UEA-1 were incubated together with the Caco-2 cell membrane preparations, while in case of the two-tier assay, the mixture/compounds were allowed to incubate alone with the cell membranes in the absence of biotinylated UEA-1, which was added in the next step. Addition of the extra step in the two-tier assay was to ensure that the compounds inhibiting the binding of biotinylated UEA-1 to the Caco-2 cell membranes were doing so by themselves binding to surface receptors on the Caco-2 cells and not to the biotinylated UEA-1. Each assay will be described in detail.
(§3) • 1. Confluent Caco-2 cell monolayers (grown in 75 cm^2 flasks for up to 1 week at 37° C. and 5% CO2) were washed twice in Dulbecco's PBS (DPBS). • 2. Cell monolayers were treated with 10 mM EDTA-DPBS for 5–10 min at 37° C. and cells were harvested by centrifugation at 1000 rpm for 5 min. • 3. Cells were washed 3 times in DPBS. • 4. […] The cells were homogenised for 30 sec. • 6. The homogenates were centrifuged in hard walled tubes at 40,000 rpm for 45 min at 4° C. • 7. […] The supernatant was removed and stored on ice. The procedure was repeated adding the second supernatant to the first. • 8. The protein concentration was determined using e.g. a Bio-Rad protein assay. • 9. All fractions were stored at −80° C. prior to use. Single Tier Assays: • 1. 96-well microtiter plates were coated with membrane preparations of Caco-2 cells either by allowing them to incubate on the plates for 2½ hours at room temperature or by incubating them overnight at 4° C. 100 μl of 10 μg/ml (in 0.05 M carbonate buffer, pH 9.6) of membrane preparation was added to each well. • 2. The plates were flicked out, patted dry and blocked with bovine serum albumin (BSA)/DPBS (200 μl/well) for 1 to 4 hours at room temperature after which they were washed three times in water. • 3. […] Control wells were also set up in which the Caco-2 cell membrane preparations were incubated with unconjugated UEA-1. […] Following overnight incubation the plates were washed thoroughly (3–6 times). The plates were flicked out, patted dry and biotinylated UEA-1 was detected with commercial Streptavidin conjugated to horseradish peroxidase (HRP) (CalBiochem). […] The plates were left to incubate for an hour at room temperature. • 6. The plates were then washed 3–6 times and the biotin-streptavidin binding was detected by adding an HRP substrate OPD (orthophenyl diamine) to each well. 100 μl/well of this substrate at a final concentration of 1.6 mg/ml was added to each well. Before adding to the wells, this substrate was activated by addition of 50 μl of 3% H2O2 per plate and the reaction was allowed to develop in the dark. • 7. The reaction was stopped by adding 50 μl of 4 N H2SO4 to each well after approximately 5–10 minutes or when sufficient colour had developed. The OD490 (absorbance at 490 nm) of each well was measured using a conventional 96 well plate reading spectrophotometer. Two Tier Assays: • 1. 96 well plates were coated with Caco-2 cell membrane preparations in the same manner as described in the single tier assay. • 2. […] 100 μl at these final concentrations were added to each well. • 4. The plates were then left to incubate overnight, a step that would allow the mixtures and compounds to interact with the Caco-2 cell membranes without the presence of the competitor (biotinylated UEA-1) itself. • 5. […]

[2] = system: UEA-1 binding sites on Caco-2 cell membrane preparations; experiment: Single tier competition assay: inhibition of biotinylated UEA-1 binding, compound and biotinylated UEA-1 incubated together; set-up: species or system human
Experimental: as §1, §2, §3

[3] = Table 8, galloyl constructs, read-out: IC 50 (uM) 2nd tier
[4] = library MSI 27, read-out: Two Tier Assay IC50
[5] = Table 8, galloyl constructs, read-out: IC 50 (uM) 1st tier (converted)
[6] = library MSI 27, read-out: Single Tier Assay IC50

Structure (SMILES) | IC 50 (ug/ml) 2nd tier ([1]; Table 8, galloyl constructs) [µg/mL] | IC50 [1, 3] [µM] | Two Tier Assay IC50 ([1]; library MSI 27) [µg/mL] | IC50 [1, 4] [µM] | IC 50 (ug/ml) 1st tier ([2]; Table 8, galloyl constructs) [µg/mL] | IC50 [2, 5] [µM] | Single Tier Assay IC50 ([2]; library MSI 27) [µg/mL] | IC50 [2, 6] [µM]
NC(=O)C(CCCCNC(=O)C(CCCCNC(=O)c1cc(O)c(O)c(O)c1)NC(=O)c1cc(O)c(O)c(O)c1)NC(=O)C(CCCCNC(=O)c1cc(O)c(O)c(O)c1)NC(=O)c1cc(O)c(O)c(O)c1 (centres unmarked) [Cpd 22] | 1 (≈ 0.99 µM) | 1 | 2.86 | 2.84 | 10 (≈ 9.9 µM) | 10 | 17.61 | 17.4
NC(=O)C(CCCCNC(=O)C(CCCCNC(=O)c1cc(O)cc(O)c1)NC(=O)c1cc(O)cc(O)c1)NC(=O)C(CCCCNC(=O)c1cc(O)cc(O)c1)NC(=O)c1cc(O)cc(O)c1 (centres unmarked) [Cpd 24] |  |  |  | 265 |  |  |  | 265
CCOc1cc(C(=O)NCCCCC(NC(=O)C(CCCCNC(=O)c2cc(OCC)c(OCC)c(OCC)c2)NC(=O)c2cc(OCC)c(OCC)c(OCC)c2)C(N)=O)cc(OCC)c1OCC (centres unmarked) [Cpd 27] |  |  |  | 255 |  |  |  | 255
COc1cc(C(=O)NCCCCC(NC(=O)C(CCCCNC(=O)c2cc(OC)c(OC)c(OC)c2)NC(=O)c2cc(OC)c(OC)c(OC)c2)C(N)=O)cc(OC)c1OC (centres unmarked) [Cpd 28] |  |  |  | 292 |  |  |  | 292
NC(=O)C(CCCCNC(=O)c1cc(O)c(O)c(O)c1)NC(=O)C(CCCCNC(=O)c1cc(O)c(O)c(O)c1)NC(=O)c1cc(O)c(O)c(O)c1 (centres unmarked) [Cpd 30] | 5 (≈ 6.85 µM) | 7 | 8.36 | 11.5 | 14 (≈ 19.2 µM) | 19 | 25.89 | 35.5
NC(=O)C(CCCCNC(=O)c1ccc(O)cc1)NC(=O)C(CCCCNC(=O)c1ccc(O)cc1)NC(=O)c1ccc(O)cc1 (centres unmarked) [Cpd 31] |  |  |  | 395 |  |  |  | 395
NC(=O)C(CCCCNC(=O)c1cc(O)cc(O)c1)NC(=O)C(CCCCNC(=O)c1cc(O)cc(O)c1)NC(=O)c1cc(O)cc(O)c1 (centres unmarked) [Cpd 32] |  |  |  | 367 |  |  |  | 367
COc1cc(C(=O)NCCCCC(NC(=O)C(CCCCNC(=O)c2cc(OC)c(O)c(OC)c2)NC(C)=O)C(N)=O)cc(OC)c1O (centres unmarked) [Cpd 33] |  |  | 72.17 | 107 |  |  | 97.85 | 145
COc1ccc(C(=O)NCCCCC(NC(=O)C(CCCCNC(=O)c2ccc(OC)c(OC)c2)NC(C)=O)C(N)=O)cc1OC (centres unmarked) [Cpd 34] |  |  | 87.01 | 135 |  |  | 121.40 | 189
CCOc1cc(C(=O)NCCCCC(NC(=O)C(CCCCNC(=O)c2cc(OCC)c(OCC)c(OCC)c2)NC(C)=O)C(N)=O)cc(OCC)c1OCC (centres unmarked) [Cpd 35] |  |  |  | 317 |  |  |  | 317
COc1cc(C(=O)NCCCCC(NC(=O)C(CCCCNC(=O)c2cc(OC)c(OC)c(OC)c2)NC(C)=O)C(N)=O)cc(OC)c1OC (centres unmarked) [Cpd 36] |  |  | 125.00 | 178 |  |  |  | 355
CC(=O)NC(CCCCNC(=O)c1cc(O)c(O)c(O)c1)C(=O)NC(CCCCNC(=O)c1cc(O)c(O)c(O)c1)C(N)=O (centres unmarked) [Cpd 38] | 48 (≈ 77.5 µM) | 77 | 54.27 | 87.6 | 54 (≈ 87.1 µM) | 86 | 87.78 | 142
CC(=O)NC(CCCCNC(=O)c1ccc(O)cc1)C(=O)NC(CCCCNC(=O)c1ccc(O)cc1)C(N)=O (centres unmarked) [Cpd 39] |  |  | 158.60 | 285 |  |  |  | 450
CC(=O)NC(CCCCNC(=O)c1cc(O)cc(O)c1)C(=O)NC(CCCCNC(=O)c1cc(O)cc(O)c1)C(N)=O (centres unmarked) [Cpd 40] |  |  |  | 425 |  |  |  | 425
COc1cc(C(=O)NCCCCC(NC(=O)C(CCCCNC(=O)c2cc(OC)c(O)c(OC)c2)NC(=O)C(CCCCNC(=O)c2cc(OC)c(O)c(OC)c2)NC(=O)c2cc(OC)c(O)c(OC)c2)C(N)=O)cc(OC)c1O (centres unmarked) [Cpd 41] |  |  | 83.26 | 74.2 |  |  | 89.77 | 80
COc1ccc(C(=O)NCCCC[C@@H](NC(=O)[C@@H](CCCCNC(=O)c2ccc(OC)c(OC)c2)NC(=O)[C@@H](CCCCNC(=O)c2ccc(OC)c(OC)c2)NC(=O)c2ccc(OC)c(OC)c2)C(N)=O)cc1OC [Cpd 42] |  |  | 113.80 | 108 |  |  | 107.00 | 101
CCOc1cc(C(=O)NCCCC[C@@H](NC(=O)[C@@H](CCCCNC(=O)c2cc(OCC)c(OCC)c(OCC)c2)NC(=O)[C@@H](CCCCNC(=O)c2cc(OCC)c(OCC)c(OCC)c2)NC(=O)c2cc(OCC)c(OCC)c(OCC)c2)C(N)=O)cc(OCC)c1OCC [Cpd 43] |  |  |  | 186 |  |  |  | 186
COc1cc(C(=O)NCCCC[C@@H](NC(=O)[C@@H](CCCCNC(=O)c2cc(OC)c(OC)c(OC)c2)NC(=O)[C@@H](CCCCNC(=O)c2cc(OC)c(OC)c(OC)c2)NC(=O)c2cc(OC)c(OC)c(OC)c2)C(N)=O)cc(OC)c1OC [Cpd 44] |  |  |  | 212 |  |  |  | 212
NC(=O)C(CCCCNC(=O)c1cc(O)c(O)c(O)c1)NC(=O)C(CCCCNC(=O)c1cc(O)c(O)c(O)c1)NC(=O)C(CCCCNC(=O)c1cc(O)c(O)c(O)c1)NC(=O)c1cc(O)c(O)c(O)c1 (centres unmarked) [Cpd 46] | 0.6 (≈ 0.594 µM) | 0.6 | 2.00 | 1.98 | 8 (≈ 7.92 µM) | 8 | 14.92 | 14.8
NC(=O)[C@@H](CCCCNC(=O)c1ccc(O)cc1)NC(=O)[C@@H](CCCCNC(=O)c1ccc(O)cc1)NC(=O)[C@@H](CCCCNC(=O)c1ccc(O)cc1)NC(=O)c1ccc(O)cc1 [Cpd 47] |  |  |  | 283 |  |  |  | 283
NC(=O)[C@@H](CCCCNC(=O)c1cc(O)cc(O)c1)NC(=O)[C@@H](CCCCNC(=O)c1cc(O)cc(O)c1)NC(=O)[C@@H](CCCCNC(=O)c1cc(O)cc(O)c1)NC(=O)c1cc(O)cc(O)c1 [Cpd 48] |  |  |  | 264 |  |  |  | 264
COc1cc(C(=O)NCCCCC(NC(=O)C(CCCCNC(=O)c2cc(OC)c(O)c(OC)c2)NC(=O)C(CCCCNC(=O)c2cc(OC)c(O)c(OC)c2)NC(C)=O)C(N)=O)cc(OC)c1O (centres unmarked) [Cpd 49] |  |  | 108.80 | 111 |  |  | 118.00 | 120
